Results on 48 compounds are retold here after patent publication KR20130112248A, “피라졸로피리미딘 유도체 화합물, 이를 포함하는 산화질소 생성 억제용 조성물 및 뇌신경 질환 예방 및 치료용 약학적 조성물” (한국과학기술연구원, priority 2012, dated 2013).

The test system of this assay is NO production in BV-2 cells [NO 생성; BV-2 세포]. In words: Nitric oxide (NO) quantification (nitrite, Griess reaction) in LPS-activated BV-2 cells. Particulars: 20 μM, LPS 0.2 ㎍/mL, 24 h co-treatment, nitrite by Griess at 540 nm; for NO (% of LPS): 1440 min; for activity at 20 µM: Mus musculus, BV-2, 24 h. The assay is classed as cell-based. (Griess reagent forms a coloured azo dye with nitrite.)

As to `CC(Nc1nc([S+](C)[O-])nc2c1cnn2Cc1ccccc1)c1ccccc1` (stereo not drawn) [화합물 22i, 1-벤질-6-(메틸설파이닐)-N-(1-페닐에틸)-1H-피라졸로[3,4-d]피리미딘-4-아민], the “NO (% of LPS)” value is 81±7.5 % of LPS.
Consider `CC(Nc1nc([S+](C)[O-])nc2c1cnn2Cc1ccccc1)c1ccccc1` (stereo not drawn) [화합물 22j, 1-벤질-6-(메틸설파이닐)-N-(1-페닐에틸)-1H-피라졸로[3,4-d]피리미딘-4-아민], for which the “NO (% of LPS)” value is recorded as 70±3.9 % of LPS.
`COc1cccc(CCn2ncc3c(NCc4ccccc4Cl)nc([S+](C)[O-])nc32)c1` (stereo not drawn) [화합물 22k, N-(2-클로로벤질)-1-(3-메톡시펜에틸)-6-(메틸설파이닐)-1H-피라졸로[3,4-d]피리미딘-4-아민]: the activity at 20 µM turned out to be 58 ± 2%.
Take `COc1cccc(CCn2ncc3c(NCc4ccccc4OC)nc([S+](C)[O-])nc32)c1` (stereo not drawn) [화합물 22l, N-(2-메톡시벤질)-1-(3-메톡시펜에틸)-6-(메틸설파이닐)-1H-피라졸로[3,4-d]피리미딘-4-아민]: the activity at 20 µM turned out to be 60 ± 3.3%.
Still for that read-out and setting: the value for `COc1cccc(CCn2ncc3c(NCc4ccccc4C)nc(S(C)(=O)=O)nc32)c1` [화합물 22m, N-(2-메틸벤질)-1-(3-메톡시펜에틸)-6-(메틸설포닐)-1H-피라졸로[3,4-d]피리미딘-4-아민] was 62 ± 2.8%; that for `CCCCNc1nc(S(C)(=O)=O)nc2c1cnn2-c1ccccc1` [화합물 23a, N-뷰틸-6-(메틸설포닐)-1-페닐-1H-피라졸로[3,4-d]피리미딘-4-아민] was 40 ± 7.1%; that for `CS(=O)(=O)c1nc(NCc2ccccc2Cl)c2cnn(-c3ccccc3)c2n1` [화합물 23b, N-(2-클로로벤질)-6-(메틸설포닐)-1-페닐-1H-피라졸로[3,4-d]피리미딘-4-아민] was 93 ± 2%.
Take `COc1ccccc1CNc1nc(S(C)(=O)=O)nc2c1cnn2-c1ccccc1` [화합물 23c, N-(2-메톡시벤질)-6-(메틸설포닐)-1-페닐-1H-피라졸로[3,4-d]피리미딘-4-아민]: the activity at 20 µM was determined as 41 ± 2.3%.
With `CS(=O)(=O)c1nc(NC(c2ccccc2)c2ccc(Cl)cc2)c2cnn(-c3ccccc3)c2n1` (stereo not drawn) [화합물 23e, N-((4-클로로페닐)(페닐)메틸)-6-(메틸설포닐)-1-페닐-1H-피라졸로[3,4-d]피리미딘-4-아민], the activity at 20 µM was found to be 36 ± 3.6%.
Consider `CC(Nc1nc(S(C)(=O)=O)nc2c1cnn2-c1ccccc1)C1CCCCC1` (stereo not drawn) [화합물 23f, N-(1-사이클로헥실에틸)-6-(메틸설포닐)-1-페닐-1H-피라졸로[3,4-d]피리미딘-4-아민], for which the activity at 20 µM turned out to be 23 ± 0.6%.
Same read-out and setting: the same measure for `Cc1ccc(C(C)Nc2nc(S(C)(=O)=O)nc3c2cnn3-c2ccccc2)cc1` (stereo not drawn) [화합물 23g, 6-(메틸설포닐)-1-페닐-N-(1-p-톨릴에틸)-1H-피라졸로[3,4-d]피리미딘-4-아민]: 46 ± 3.9%; for `COc1ccc([C@H](C)Nc2nc(S(C)(=O)=O)nc3c2cnn3-c2ccccc2)cc1` [화합물 23h, N-((S)-1-(4-메톡시페닐)에틸)-6-(메틸설포닐)-1-페닐-1H-피라졸로[3,4-d]피리미딘-4-아민]: 41 ± 5.7%; for `COc1ccccc1CNc1nc(S(C)(=O)=O)nc2c1cnn2-c1ccc(F)cc1` [화합물 23i, N-(2-메톡시벤질)-1-(4-플루오로페닐)-6-(메틸설포닐)-1H-피라졸로[3,4-d]피리미딘-4-아민]: 35 ± 7.3%.
On to `CS(=O)(=O)c1nc(NCc2ccccc2Cl)c2cnn(-c3ccc(F)cc3)c2n1` [화합물 23j, N-(2-클로로벤질)-1-(4-플루오로페닐)-6-(메틸설포닐)-1H-피라졸로[3,4-d]피리미딘-4-아민], for which the activity at 20 µM was determined as 28 ± 19.3%.
Consider `Cc1ccccc1CNc1nc(S(C)(=O)=O)nc2c1cnn2-c1ccc(F)cc1` [화합물 23k, N-(2-메틸벤질)-1-(4-플루오로페닐)-6-(메틸설포닐)-1H-피라졸로[3,4-d]피리미딘-4-아민], for which the activity at 20 µM worked out at 35 ± 4.6%.
For `Cc1ccc(-n2ncc3c(NCc4ccccc4Cl)nc(S(C)(=O)=O)nc32)cc1` [화합물 23l, N-(2-클로로벤질)-6-(메틸설포닐)-1-p-톨릴-1H-피라졸로[3,4-d]피리미딘-4-아민], the activity at 20 µM came to 30 ± 37.4%.
Consider `COc1ccccc1CNc1nc(S(C)(=O)=O)nc2c1cnn2-c1ccc(C)cc1` [화합물 23m, N-(2-메톡시벤질)-6-(메틸설포닐)-1-p-톨릴-1H-피라졸로[3,4-d]피리미딘-4-아민], for which the activity at 20 µM worked out at 35 ± 3.3%.
Regarding `Cc1ccc(-n2ncc3c(NCc4ccccc4C)nc(S(C)(=O)=O)nc32)cc1` [화합물 23n, N-(2-메틸벤질)-1-(4-메틸페닐)-6-(메틸설포닐)-1-p-톨릴-1H-피라졸로[3,4-d]피리미딘-4-아민], the activity at 20 µM came to 82 ± 3.1%.
As for `COc1ccc(CNc2nc(S(C)(=O)=O)nc3c2cnn3-c2ccc(C)cc2)cc1` [화합물 23o, N-(4-메톡시벤질)-6-(메틸설포닐)-1-p-톨릴-1H-피라졸로[3,4-d]피리미딘-4-아민], the activity at 20 µM was 30 ± 2.4%.
As to `CC(Nc1nc(S(C)(=O)=O)nc2c1cnn2Cc1ccccc1)c1ccccc1` (stereo not drawn) [화합물 23p, 1-벤질-6-(메틸설포닐)-N-(1-페닐에틸)-1H-피라졸로[3,4-d]피리미딘-4-아민], the activity at 20 µM was determined as 40 ± 4.9%.
In the case of `CS(=O)(=O)c1nc(NC(c2ccccc2)c2ccc(Cl)cc2)c2cnn(Cc3ccccc3)c2n1` (stereo not drawn) [화합물 23s, 1-벤질-N-((4-클로로페닐)(페닐)메틸)-6-(메틸설포닐)-N-(1-페닐에틸)-1H-피라졸로[3,4-d]피리미딘-4-아민], the activity at 20 µM worked out at 54 ± 2.3%.
As to `CC(Nc1nc(S(C)(=O)=O)nc2c1cnn2Cc1ccccc1)C1CCCCC1` (stereo not drawn) [화합물 23t, 1-벤질-N-(1-사이클로헥실에틸)-6-(메틸설포닐)-1H-피라졸로[3,4-d]피리미딘-4-아민], the activity at 20 µM was 42 ± 2.6%.
With `Cc1ccc(C(C)Nc2nc(S(C)(=O)=O)nc3c2cnn3Cc2ccccc2)cc1` (stereo not drawn) [화합물 23u, 1-벤질-6-(메틸설포닐)-N-(1-p-톨릴에틸)-1H-피라졸로[3,4-d]피리미딘-4-아민], the activity at 20 µM was determined as 120 ± 3.1%.
Turning to `COc1ccc([C@H](C)Nc2nc(S(C)(=O)=O)nc3c2cnn3Cc2ccccc2)cc1` [화합물 23v, 1-벤질-N-((S)-1-(4-메톡시페닐)에틸)-6-(메틸설포닐)-1H-피라졸로[3,4-d]피리미딘-4-아민], the activity at 20 µM was determined as 59 ± 3%.
On the same count and under the same terms, the value for `COc1cccc(CCn2ncc3c(NCc4ccccc4Cl)nc(S(C)(=O)=O)nc32)c1` [화합물 23w, N-(2-클로로벤질)-1-(3-메톡시펜에틸)-6-(메틸설포닐)-1H-피라졸로[3,4-d]피리미딘-4-아민] was 54 ± 2.3%; that for `COc1cccc(CCn2ncc3c(NCc4ccccc4OC)nc(S(C)(=O)=O)nc32)c1` [화합물 23x, N-(2-메톡시벤질)-1-(3-메톡시펜에틸)-6-(메틸설포닐)-1H-피라졸로[3,4-d]피리미딘-4-아민] was 35 ± 4.3%.
`COc1cccc(CCn2ncc3c(NCc4ccccc4C)nc(S(C)(=O)=O)nc32)c1` [화합물 23y, N-(2-메틸벤질)-1-(3-메톡시펜에틸)-6-(메틸설포닐)-1H-피라졸로[3,4-d]피리미딘-4-아민]: the “NO (% of LPS)” value is listed as 54±3.5 % of LPS.
In the case of `COc1cccc(CNc2nc(S(C)(=O)=O)nc3c2cnn3CCc2ccccc2OC)c1` [화합물 23z, 1-(2-메톡시펜에틸)-N-(3-메톡시벤질)-6-(메틸설포닐)-1H-피라졸로[3,4-d]피리미딘-4-아민], the activity at 20 µM turned out to be 51 ± 3.5%.
On to `COc1ccc(CNc2nc(S(C)(=O)=O)nc3c2cnn3CCc2ccccc2OC)cc1` [화합물 23za, 1-(2-메톡시펜에틸)-N-(4-메톡시벤질)-6-(메틸설포닐)-1H-피라졸로[3,4-d]피리미딘-4-아민], for which the activity at 20 µM came out at 56 ± 3.6%.
Take `CC(Nc1nc(NCCO)nc2c1cnn2Cc1ccccc1)c1ccccc1` (stereo not drawn) [화합물 24a, 2-(4-(1-페닐에틸아미노)-1-벤질-1H-피라졸로[3,4-d]피리미딘-6-일아미노)에탄올]: the activity at 20 µM is 78 ± 1.4%.
For the compound `CC(Nc1nc(NCCCO)nc2c1cnn2Cc1ccccc1)c1ccccc1` (stereo not drawn) [화합물 24b, 3-(4-(1-페닐에틸아미노)-1-벤질-1H-피라졸로[3,4-d]피리미딘-6-일아미노)프로판-1-올], the activity at 20 µM is 137 ± 5.7%.
As for `CC(Nc1nc(NCCCCO)nc2c1cnn2Cc1ccccc1)c1ccccc1` (stereo not drawn) [화합물 24c, 4-(4-(1-페닐에틸아미노)-1-벤질-1H-피라졸로[3,4-d]피리미딘-6-일아미노)부탄-1-올], the activity at 20 µM turned out to be 123 ± 5.4%.
Turning to `CC(Nc1nc(NCCOCCO)nc2c1cnn2Cc1ccccc1)c1ccccc1` (stereo not drawn) [화합물 24d, 2-(2-(4-(1-페닐에틸아미노)-1-벤질-1H-피라졸로[3,4-d]피리미딘-6-일아미노)에톡시)에탄올], the activity at 20 µM worked out at 130 ± 1.8%.
For the compound `CC(Nc1nc(NCc2ccccc2)nc2c1cnn2Cc1ccccc1)c1ccccc1` (stereo not drawn) [화합물 24e, N6,1-디벤질-N4-(1-페닐에틸)-1-벤질-1H-피라졸로[3,4-d]피리미딘-4,6-디아민], the activity at 20 µM is 41 ± 16.3%.
As to `CCCCNc1nc(NC(C)c2ccccc2)c2cnn(Cc3ccccc3)c2n1` (stereo not drawn) [화합물 24f, 1-벤질-N6-뷰틸-N4-(1-페닐에틸)-1H-피라졸로[3,4-d]피리미딘-4,6-디아민], the “NO (% of LPS)” value is 9±1 % of LPS.
For the compound `CC(Nc1nc(N(C)C)nc2c1cnn2Cc1ccccc1)c1ccccc1` (stereo not drawn) [화합물 24g, 1-벤질-N6,N6-디메틸-N4-(1-페닐에틸)-1H-피라졸로[3,4-d]피리미딘-4,6-디아민], the activity at 20 µM was determined as 63 ± 2.6%.
For the compound `COCCNc1nc(NC(C)c2ccccc2)c2cnn(Cc3ccccc3)c2n1` (stereo not drawn) [화합물 24h, 1-벤질-N6-(2-메톡시에틸)-N4-(1-페닐에틸)-1H-피라졸로[3,4-d]피리미딘-4,6-디아민], the activity at 20 µM worked out at 44 ± 4.2%.
With `C=CCSc1nc(SC)nc2c1cnn2-c1ccccc1` [화합물 25b, 1-페닐-4-알릴티오-6-(메틸티오)피라졸로[3,4-d]피리미딘], the activity at 20 µM is 89 ± 6%.
On to `CSc1nc(NCc2ccccc2)c2cnn(CCO)c2n1` [화합물 27a, 1-(1-하이드록시에틸)-4-벤질아미노-6-(메틸티오)피라졸로[3,4-d]피리미딘], for which the activity at 20 µM was 77 ± 5%.
For the compound `CSc1nc(NCc2ccc(F)cc2)c2cnn(CCO)c2n1` [화합물 27b, 1-(1-하이드록시에틸)-4-(4-플루오로벤질)벤질아미노-6-(메틸티오)피라졸로[3,4-d]피리미딘], the activity at 20 µM turned out to be 73 ± 10%.
As for `C=CCNc1nc(SC)nc2c1cnn2CCO` [화합물 27c, 1-(1-하이드록시에틸)-4-알릴아미노-6-(메틸티오)피라졸로[3,4-d]피리미딘], the activity at 20 µM was determined as 98 ± 6%.
Same read-out and setting: the value for `COc1cccc(CNc2nc(SC)nc3c2cnn3CCO)c1` [화합물 27d, 1-(1-하이드록시에틸)-4-(3-메톡시벤질)아미노-6-(메틸티오)피라졸로[3,4-d]피리미딘] was 49 ± 12%; that for `COc1ccc(CNc2nc(SC)nc3c2cnn3CCO)cc1` [화합물 27e, 1-(1-하이드록시에틸)-4-(4-메톡시벤질)아미노-6-(메틸티오)피라졸로[3,4-d]피리미딘] was 56 ± 6%.
`COc1nc(SC)nc2c1cnn2CCO` [화합물 27f, 2-(4-메톡시-6-(메틸티오)-1H-피라졸로[3,4-d]피리미딘-1-일)에탄올]: the activity at 20 µM was found to be 86 ± 3%.
For the compound `CSc1nc(NCc2ccccc2C)c2cnn(CCO)c2n1` [화합물 27g, 2-(4-(2-메틸벤질아미노)-6-(메틸티오)-1H-피라졸로[3,4-d]피리미딘-1-일)에탄올], the activity at 20 µM stood at 82 ± 2.5%.
Regarding `CSc1nc(NCc2ccccc2Cl)c2cnn(CCO)c2n1` [화합물 27h, 2-(4-(2-클로로벤질아미노)-6-(메틸티오)-1H-피라졸로[3,4-d]피리미딘-1-일)에탄올], the activity at 20 µM turned out to be 87.4 ± 1.2%.
The same measure, in the same setting: the value for `COc1ccccc1CNc1nc(SC)nc2c1cnn2CCO` [화합물 27i, 2-(4-(2-메톡시벤질아미노)-6-(메틸티오)-1H-피라졸로[3,4-d]피리미딘-1-일)에탄올] was 83.5 ± 3.1%.
On to `CSc1nc(Cl)c2c(-c3ccccc3)nn(-c3ccccc3)c2n1` [화합물 30a, 1-페닐-3-페닐-4-클로로-6-(메틸티오)피라졸로[3,4-d]피리미딘], for which the activity at 20 µM was determined as 13 ± 18%.
